IC50 data for four molecules are collected here from BindingDB's records for doi:10.1080/14756360600991017 (University of Athens, 2007).

The assay addresses T1, Seed linoleate 13S-lipoxygenase-1 (Glycine max, UniProt P08170).
T1 sequence (P08170 whole entry): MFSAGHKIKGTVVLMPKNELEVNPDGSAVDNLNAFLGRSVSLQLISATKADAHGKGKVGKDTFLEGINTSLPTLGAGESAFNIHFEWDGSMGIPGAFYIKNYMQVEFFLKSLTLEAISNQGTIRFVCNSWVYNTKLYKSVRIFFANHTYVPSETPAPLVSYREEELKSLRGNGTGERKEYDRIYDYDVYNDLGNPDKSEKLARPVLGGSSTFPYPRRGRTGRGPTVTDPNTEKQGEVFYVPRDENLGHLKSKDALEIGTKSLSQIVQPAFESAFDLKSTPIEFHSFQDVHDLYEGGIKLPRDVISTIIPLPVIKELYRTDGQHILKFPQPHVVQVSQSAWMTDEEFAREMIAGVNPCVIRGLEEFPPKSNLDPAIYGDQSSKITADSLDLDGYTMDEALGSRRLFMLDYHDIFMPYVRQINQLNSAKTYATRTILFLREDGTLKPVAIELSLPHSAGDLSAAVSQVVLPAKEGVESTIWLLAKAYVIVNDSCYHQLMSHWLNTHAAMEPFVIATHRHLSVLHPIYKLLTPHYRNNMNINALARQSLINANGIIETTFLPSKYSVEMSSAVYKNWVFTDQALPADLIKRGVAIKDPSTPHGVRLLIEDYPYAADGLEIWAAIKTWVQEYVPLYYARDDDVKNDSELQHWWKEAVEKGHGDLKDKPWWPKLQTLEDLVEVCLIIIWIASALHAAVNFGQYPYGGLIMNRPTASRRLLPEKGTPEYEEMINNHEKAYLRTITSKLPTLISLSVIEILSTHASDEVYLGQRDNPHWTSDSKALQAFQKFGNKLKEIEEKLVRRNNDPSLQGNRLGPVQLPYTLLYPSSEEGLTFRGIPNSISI
Put plainly: Inhibition Assay. Particulars: 25 °C.
Protocol: soybean lipoxygenase and linoleic acid sodium salt were obtained from Sigma Chemical, Co. in St. Louis, MO. Each experiment of the in vitro assay was performed at least in triplicate and the standard deviation of absorbance was less than 10% of the mean.
`O=C(/C=C/c1ccc(O)c(O)c1)O[C@H](Cc1ccc(O)c(O)c1)C(=O)O` [Rosmarinic acid, 2] came in with an IC50 of 1150 µM.

The molecule `CC(C)C1=C[C@H](O)[C@@](C)(O[C@@H]2OC(CO)[C@@H](O)[C@H](O)C2O)CC1` (some centres undefined) [p-menth-3-ene-1,2-diol 1-O-B-glucopyranoside, 5] yielded a half-inhibitory concentration (IC50) of 360 µM.

Molecule `O=C(/C=C/c1ccc(O)c2c1C(C(=O)O[C@@H](Cc1ccc(O)c(O)c1)C(=O)O)[C@@H](c1ccc(O)c(O)c1)O2)O[C@H](Cc1ccc(O)c(O)c1)C(=O)O` (some centres undefined) [Lithospermic acid, 3] displayed an IC50 of 1000 µM.

`O=C(O)C[C@H]1CCC(=O)[C@@H]1C/C=C/CCO[C@H]1OC(CO)[C@H](O)C(O)[C@H]1O` (some centres undefined) [12-hydroxy-jasmonic acid 12-O-B-glucoside, 4]: the half-inhibitory concentration (IC50) worked out at 560 µM.

By IC50 is commonly meant the midpoint of a concentration-inhibition curve. A lower IC50 goes with inhibition by little substance.
